Experiments:
Type in all cases: in vivo
[1] = test system: giant foxtail (Setaria faberii); test: Test A preemergence; conditions: Setaria faberi, pre-emergence, 240 h, 0 to 100 scale where 0 is no effect and 100 is complete control, read-out: Foxtail, Giant plant response rating
How it was run: (§1)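 In a loam soil and sand blend, planted seeds got a preemergence directed soil spray, and young plants at the one- to two-leaf stage, 2–10 cm high, got a postemergence application; ~10 d greenhouse hold; injury rated visually, 0 = none, 100 = complete control.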

[2] = test system: ragweed (common ragweed, Ambrosia elatior); test: Test A preemergence; conditions: Ambrosia artemisiifolia, pre-emergence, 240 h, 0 to 100 scale where 0 is no effect and 100 is complete control, read-out: Ragweed plant response rating
How it was run: as §1

[3] = test system: barnyardgrass (Echinochloa crus-galli); test: Test A preemergence; conditions: Echinochloa crus-galli, pre-emergence, 240 h, 0 to 100 scale where 0 is no effect and 100 is complete control, read-out: Barnyardgrass plant response rating
How it was run: as §1

Kochia (Kochia scoparia) [4] = test: Test A preemergence; conditions: Bassia scoparia, pre-emergence, 240 h, 0 to 100 scale where 0 is no effect and 100 is complete control, read-out: Kochia plant response rating
How it was run: as §1

[5] = test system: ryegrass, Italian (Italian ryegrass, Lolium multiflorum); test: Test A preemergence; conditions: Lolium multiflorum, pre-emergence, 240 h, 0 to 100 scale where 0 is no effect and 100 is complete control, read-out: Ryegrass, Italian plant response rating
How it was run: as §1

[6] = test system: pigweed (Amaranthus retroflexus); test: Test A preemergence; conditions: Amaranthus retroflexus, pre-emergence, 240 h, 0 to 100 scale where 0 is no effect and 100 is complete control, read-out: Pigweed plant response rating
[7] = test system: ducksalad (Heteranthera limosa); test: Test B flooded paddy test; conditions: Heteranthera limosa, 250 g ai/ha, Flood; 0 to 100 scale where 0 is no effect and 100 is complete control; read-out: Ducksalad plant response rating
How it was run: (§2)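 2-leaf plants; pots flooded 3 cm over soil; cpd added to paddy water; depth held; greenhouse 13–15 d; visual rating vs controls, 0 = no effect, 100 = complete control.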

[8] = test system: barnyardgrass (Echinochloa crus-galli); test: Test B flooded paddy test; conditions: Echinochloa crus-galli, 250 g ai/ha, Flood; 0 to 100 scale where 0 is no effect and 100 is complete control; read-out: Barnyardgrass plant response rating
How it was run: as §2

rice (Oryra sativa) = test: Test B flooded paddy test; conditions: Oryza sativa, 250 g ai/ha, Flood; 0 to 100 scale where 0 is no effect and 100 is complete control; read-out: Rice plant response rating
How it was run: as §2

[9] = test system: sedge, umbrella (small-flower umbrella sedge, Cyperus difformis); test: Test B flooded paddy test; conditions: Cyperus difformis, 250 g ai/ha, Flood; 0 to 100 scale where 0 is no effect and 100 is complete control; read-out: Sedge, Umbrella plant response rating
How it was run: as §2

[10] = test system: giant foxtail (Setaria faberii); test: Test A postemergence; conditions: Setaria faberi, post-emergence, 240 h
How it was run: as §1

[11] = test system: ragweed (common ragweed, Ambrosia elatior); test: Test A postemergence; conditions: Ambrosia artemisiifolia, post-emergence, 240 h
How it was run: as §1

[12] = test system: barnyardgrass (Echinochloa crus-galli); test: Test A postemergence; conditions: Echinochloa crus-galli, post-emergence, 240 h
How it was run: as §1

Kochia (Kochia scoparia) [13] = test: Test A postemergence; conditions: Bassia scoparia, post-emergence, 240 h
How it was run: as §1

[14] = test system: wheat (Triticum aestivum); test: Test A postemergence; conditions: Triticum aestivum, post-emergence, 240 h
How it was run: as §1

[15] = test system: Galium (catchweed bedstraw, Galium aparine); test: Test A postemergence; conditions: Galium, post-emergence, 240 h
How it was run: as §1

[16] = test system: ryegrass, Italian (Italian ryegrass, Lolium multiflorum); test: Test A postemergence; conditions: Lolium multiflorum, post-emergence, 240 h
How it was run: as §1

[17] = test system: pigweed (Amaranthus retroflexus); test: Test A postemergence; conditions: Amaranthus retroflexus, post-emergence, 240 h
How it was run: as §1

[18] = test system: blackgrass (Alopecurus myosuroides); test: Test A postemergence; conditions: Alopecurus myosuroides, post-emergence, 240 h
How it was run: as §1

corn (Zea mays) = test: Test A postemergence; conditions: Zea mays, post-emergence, 240 h
How it was run: as §1

[19] = 125 g ai/ha, preemergence, approx. 10 d

O=C1NC[C@H](c2ccc(C(F)(F)F)cn2)[C@H]1C(=O)Nc1ccc(F)c(F)c1F [Compound 1105]
pest or weed control at 31 g/ha ([1]; 31 g ai/ha, Preemergence): 20%
pest or weed control at 125 g/ha [1, 19]: 90%
pest or weed control at 31 g/ha ([2]; 31 g ai/ha, Preemergence): 0%
pest or weed control at 125 g/ha [2, 19]: 20%
pest or weed control at 31 g/ha ([3]; 31 g ai/ha, Preemergence): 30%
pest or weed control at 125 g/ha [3, 19]: 60%
pest or weed control at 31 g/ha (Kochia (Kochia scoparia) [4]; 31 g ai/ha, Preemergence): 0%
pest or weed control at 125 g/ha (Kochia (Kochia scoparia) [4]; [19]): 70%
pest or weed control at 31 g/ha ([5]; 31 g ai/ha, Preemergence): 0%
pest or weed control at 125 g/ha [5, 19]: 0%
pest or weed control at 31 g/ha ([6]; 31 g ai/ha, Preemergence): 0%
pest or weed control at 125 g/ha [6, 19]: 0%
pest or weed control at 250 g/ha [7]: 100%
pest or weed control at 250 g/ha [8]: 50%
pest or weed control at 250 g/ha (rice (Oryra sativa)): 20%
pest or weed control at 250 g/ha [9]: 0%
pest or weed control at 125 g/ha ([10]; 125 g ai/ha, postemergence, visual injury on 0 to 100 scale (0 no effect, 100 complete control), approx. 10 d, read-out: Foxtail, Giant plant response rating): 50%
pest or weed control at 31 g/ha ([10]; Postemergence, 31 g ai/ha, visual injury after approx. 10 d, 0 to 100 scale, 0 no effect, 100 complete control, read-out: Plant response rating, Foxtail, Giant): 0%
pest or weed control at 125 g/ha ([11]; 125 g ai/ha, postemergence, visual injury on 0 to 100 scale (0 no effect, 100 complete control), approx. 10 d, read-out: Ragweed plant response rating): 0%
pest or weed control at 31 g/ha ([11]; Postemergence, 31 g ai/ha, visual injury after approx. 10 d, 0 to 100 scale, 0 no effect, 100 complete control, read-out: Plant response rating, Ragweed): 0%
pest or weed control at 125 g/ha ([12]; 125 g ai/ha, postemergence, visual injury on 0 to 100 scale (0 no effect, 100 complete control), approx. 10 d, read-out: Barnyardgrass plant response rating): 30%
pest or weed control at 31 g/ha ([12]; Postemergence, 31 g ai/ha, visual injury after approx. 10 d, 0 to 100 scale, 0 no effect, 100 complete control, read-out: Plant response rating, Barnyardgrass): 0%
pest or weed control at 125 g/ha (Kochia (Kochia scoparia) [13]; 125 g ai/ha, postemergence, visual injury on 0 to 100 scale (0 no effect, 100 complete control), approx. 10 d, read-out: Kochia plant response rating): 20%
pest or weed control at 31 g/ha (Kochia (Kochia scoparia) [13]; Postemergence, 31 g ai/ha, visual injury after approx. 10 d, 0 to 100 scale, 0 no effect, 100 complete control, read-out: Plant response rating, Kochia): 0%
plant injury at 125 g/ha ([14]; 125 g ai/ha, postemergence, visual injury on 0 to 100 scale (0 no effect, 100 complete control), approx. 10 d, read-out: Wheat plant response rating): 0%
plant injury at 31 g/ha ([14]; Postemergence, 31 g ai/ha, visual injury after approx. 10 d, 0 to 100 scale, 0 no effect, 100 complete control, read-out: Plant response rating, Wheat): 0%
pest or weed control at 125 g/ha ([15]; 125 g ai/ha, postemergence, visual injury on 0 to 100 scale (0 no effect, 100 complete control), approx. 10 d, read-out: Galium plant response rating): 40%
pest or weed control at 31 g/ha ([15]; Postemergence, 31 g ai/ha, visual injury after approx. 10 d, 0 to 100 scale, 0 no effect, 100 complete control, read-out: Plant response rating, Galium): 30%
pest or weed control at 125 g/ha ([16]; 125 g ai/ha, postemergence, visual injury on 0 to 100 scale (0 no effect, 100 complete control), approx. 10 d, read-out: Ryegrass, Italian plant response rating): 0%
pest or weed control at 31 g/ha ([16]; Postemergence, 31 g ai/ha, visual injury after approx. 10 d, 0 to 100 scale, 0 no effect, 100 complete control, read-out: Plant response rating, Ryegrass, Italian): 0%
pest or weed control at 125 g/ha ([17]; 125 g ai/ha, postemergence, visual injury on 0 to 100 scale (0 no effect, 100 complete control), approx. 10 d, read-out: Pigweed plant response rating): 0%
pest or weed control at 31 g/ha ([17]; Postemergence, 31 g ai/ha, visual injury after approx. 10 d, 0 to 100 scale, 0 no effect, 100 complete control, read-out: Plant response rating, Pigweed): 0%
pest or weed control at 125 g/ha ([18]; 125 g ai/ha, postemergence, visual injury on 0 to 100 scale (0 no effect, 100 complete control), approx. 10 d, read-out: Blackgrass plant response rating): 0%
pest or weed control at 31 g/ha ([18]; Postemergence, 31 g ai/ha, visual injury after approx. 10 d, 0 to 100 scale, 0 no effect, 100 complete control, read-out: Plant response rating, Blackgrass): 0%
plant injury at 125 g/ha (corn (Zea mays); 125 g ai/ha, postemergence, visual injury on 0 to 100 scale (0 no effect, 100 complete control), approx. 10 d, read-out: Corn plant response rating): 0%
Corn plant response rating (crop injury, 0 = no effect, 100 = complete kill) at 31 g/ha (corn (Zea mays); Postemergence, 31 g ai/ha, visual injury after approx. 10 d, 0 to 100 scale, 0 no effect, 100 complete control): 0%
